Calls of active or inactive are those of the source. The rule behind the calls is not given here.
How the values were obtained:
Mus musculus [1] = experiment: Anticonvulsant activity in ip dosed albino CF1 mouse assessed as time of peak effect for protection against maximal electroshock-induced seizure; assay type: functional
Mus musculus [2] = experiment: Protective index, ratio of TD50 for ip dosed NMRI mouse to ED50 for ip dosed NMRI mouse by maximal electroshock test; assay type: functional
Mus musculus [3] = experiment: Anticonvulsant activity in ip dosed albino CF1 mouse assessed as protection against maximal electroshock-induced seizure after 30 mins; assay type: functional; conditions: 0.5 h
Mus musculus [4] = experiment: Neurotoxicity in ip dosed albino CF1 mouse assessed as time of peak effect for median neurological impairing; assay type: toxicity, organism-based; conditions: in vivo
[5] = Neurotoxicity in ip dosed albino CF1 mouse assessed as median neurological impairing dose after 30 mins; assay type: toxicity, organism-based; conditions: in vivo
Mus musculus [6] = experiment: Anticonvulsant activity in ip dosed albino CF1 mouse assessed as protection against subcutaneous pentylenetetrazol-induced seizure; assay type: functional, organism-based
Rattus norvegicus [7] = experiment: Anticonvulsant activity in po dosed albino Sprague-Dawley rat assessed as time of peak effect for protection against maximal electroshock seizure; assay type: functional
Rattus norvegicus [8] = experiment: Toxicity in po dosed albino Sprague-Dawley rat assessed as time of peak effect for behavioural toxicity; assay type: organism-based; conditions: in vivo
Rattus norvegicus [9] = experiment: Anticonvulsant activity in po dosed albino Sprague-Dawley rat assessed as protection against maximal electroshock seizure; assay type: functional
[10] = Toxicity in po dosed albino Sprague-Dawley rat assessed as behavioural toxicity; assay type: organism-based; conditions: in vivo
Mus musculus [11] = experiment: Anticonvulsant activity in ip dosed NMRI mouse assessed as protection against maximal electroshock seizure after 30 mins; assay type: functional; conditions: 0.5 h
Mus musculus [12] = experiment: Anticonvulsant activity in ip dosed 6 Hz psychomotor seizure model of NMRI mouse assessed as protection against seizure after 30 minutes; assay type: functional; conditions: 0.5 h
Mus musculus [13] = experiment: Analgesic activity in ip dosed NMRI mouse assessed as reduction in formalin-induced neuropathic pain after 30 mins; assay type: functional; conditions: 0.5 h
[14] = Neurotoxicity in ip dosed NMRI mouse assessed as median neurological impairing dose after 30 mins by rotarod test; assay type: toxicity, organism-based; conditions: in vivo
Mus musculus [15] = experiment: Analgesic activity in ip dosed albino CF1 mouse assessed as reduction of formalin-induced neuropathic pain after 30 mins; assay type: functional; conditions: 0.5 h
Mus musculus [16] = experiment: Protective index, ratio of TD50 for ip dosed albino CF1 mouse to ED50 for ip dosed albino CF1 mouse by maximal electroshock test; assay type: functional
Mus musculus [17] = experiment: Anticonvulsant activity in ip dosed albino CF1 mouse assessed as protection against 6 Hz psychomotor seizure after 30 mins; assay type: functional; conditions: 0.5 h
Rattus norvegicus [18] = experiment: Protective index, ratio of TD50 for po dosed albino Sprague-Dawley rat to ED50 for po dosed albino Sprague-Dawley rat by maximal electroshock test; assay type: functional
Mus musculus [19] = experiment: Anticonvulsant activity in ip dosed albino CF1 mouse assessed as time of peak effect for protection against 6 Hz psychomotor seizure; assay type: functional

| SMILES | Time (Mus musculus [1]) [h] | Ratio TD50/ED50 (Mus musculus [2]) | ED50 (Mus musculus [3]) [mg/kg] | Time (Mus musculus [4]) [h] | TD50 at 0.5 h [5] [mg/kg] | Activity (Mus musculus [6]) | Time (Rattus norvegicus [7]) [h] | Time (Rattus norvegicus [8]) [h] | ED50 (Rattus norvegicus [9]) [mg/kg] | TD50 [10] [mg/kg] | ED50 (Mus musculus [11]) [mg/kg] | ED50 (Mus musculus [12]) [mg/kg] | ED50 (Mus musculus [13]) [mg/kg] | TD50 at 0.5 h [14] [mg/kg] | ED50 (Mus musculus [15]) [mg/kg] | Ratio TD50/ED50 (Mus musculus [16]) | ED50 (Mus musculus [17]) [mg/kg] | Ratio TD50/ED50 (Rattus norvegicus [18]) | Time (Mus musculus [19]) [h] |
| --- | --- | --- | --- | --- | --- | --- | --- | --- | --- | --- | --- | --- | --- | --- | --- | --- | --- | --- | --- |
| CC(C)(C)[C@H](N)C(=O)NCc1ccccc1 | 0.25 | 2.5 | 42 | 0.25 | 105 | inactive | – | – | – | – | – | – | – | – | – | – | – | – | – |
| CC(C)[C@H](N)C(=O)NCc1ccc(COc2cccc(F)c2)cc1 | – | – | 30 | – | 100 | inactive | 0.25 | 0.25 | > 30 | > 30 | – | – | – | – | – | – | – | – | – |
| C[C@H](N)C(=O)NCc1ccccc1 | – | – | > 300 | – | > 300 | – | – | – | – | – | – | – | – | – | – | – | – | – | – |
| COC[C@H](N)C(=O)NCc1ccccc1 | – | 1 | – | – | – | inactive | – | – | – | – | 64 | > 70 | 120 | 63 | – | – | – | – | – |
| COc1ccc(CNC(=O)[C@H](N)C(C)C)cc1 | 0.5 | – | > 300 | 0.5 | 30 | inactive | 0.25 | 0.25 | > 30 | > 30 | – | – | – | – | – | – | – | – | – |
| Cc1ccc(CNC(=O)[C@H](N)C(C)C)cc1 | 0.5 | – | > 300 | 0.5 | > 300 | inactive | 1 | 0.25 | 50 | > 50 | – | – | – | – | – | – | – | – | – |
| C[C@@H](N)C(=O)NCc1ccccc1 | – | – | 10 | – | 100 | – | – | – | – | – | – | – | – | – | 69 | – | – | – | – |
| CC(C)[C@H](N)C(=O)NCc1ccccc1 | – | – | > 300 | – | > 300 | inactive | – | – | – | – | – | – | – | – | – | – | – | – | – |
| CC(C)(C)[C@@H](N)C(=O)NCc1ccc(C(F)(F)F)cc1 | 0.25 | – | 24 | 0.25 | 133 | inactive | 0.5 | 0.25 | < 30 | > 30 | – | – | – | – | – | 5.5 | – | – | – |
| CCCC(CCC)C(=O)[O-].[Na+] [VALPROATE SODIUM] | 0.5 | – | 270 | 0.25 | – | – | 0.5 | 0.5 | – | – | – | – | – | – | – | – | – | – | – |
| COC[C@@H](N)C(=O)NCc1ccc(OC(F)(F)F)cc1.Cl | – | – | – | – | – | inactive | – | – | – | – | 10 | – | – | 30 | – | – | – | – | – |
| COC[C@@H](NC(C)=O)C(=O)NCc1ccccc1 [LACOSAMIDE] | 0.5 | – | – | 0.25 | 27 | – | 2 | – | – | > 500 | 3.3 | 10 | 15 | 19 | – | – | 10 | – | – |
| COC[C@@H](N)C(=O)NCc1ccc(OCc2cccc(F)c2)cc1 | 0.5 | – | 15 | 0.25 | 58 | inactive | 0.5 | – | 13 | > 500 | – | – | – | – | – | 3.9 | < 50 | >38 | 0.5 |
| O=C1NC(=O)C(c2ccccc2)(c2ccccc2)N1 [PHENYTOIN] | 2 | – | – | 0.25 | 27 | – | 4 | – | – | > 3000 | – | – | – | – | – | – | – | – | – |
| CCC1(c2ccccc2)C(=O)NC(=O)NC1=O [PHENOBARBITAL] | 1 | – | – | 0.5 | 66 | – | 5 | 0.5 | – | – | – | – | – | – | – | 3 | – | – | – |
| CC(C)[C@@H](N)C(=O)NCc1ccc(C(F)(F)F)cc1 | 0.5 | – | 14 | 0.25 | 57 | inactive | 1 | – | 13 | > 500 | – | – | – | – | – | 4.1 | 30 | >38 | 0.5 |
| CC(C)(C)[C@@H](N)C(=O)NCc1ccc(OCc2cccc(F)c2)cc1 | 0.5 | – | 30 | 0.5 | 300 | inactive | 0.25 | 0.25 | > 30 | > 30 | – | – | – | – | – | – | – | – | – |
| COC[C@@H](N)C(=O)NCc1ccccc1.Cl | 0.25 | >3.5 | 48 | 0.25 | 30 | inactive | – | – | – | – | 34 | > 67 | > 67 | > 120 | – | – | – | – | – |
| COC[C@H](N)C(=O)NCc1ccc(COc2cccc(F)c2)cc1 | – | – | 30 | – | 100 | inactive | – | – | – | – | – | – | – | – | – | – | – | – | – |
| CC(C)(C)[C@@H](N)C(=O)NCc1ccc(OC(F)(F)F)cc1 | 1 | – | 28 | 0.25 | 73 | inactive | 2 | 0.25 | 23 | > 30 | – | – | – | – | – | 2.6 | – | – | – |
| CC(C)[C@@H](N)C(=O)NCc1ccc(-c2ccccc2)cc1 | 0.5 | – | 30 | 0.5 | > 300 | inactive | 2 | 0.25 | 30 | > 30 | – | – | – | – | – | – | – | – | – |
| CC(C)(C)[C@@H](N)C(=O)NCc1ccc(-c2ccccc2)cc1 | 0.5 | – | 30 | 0.5 | 30 | inactive | – | – | – | – | – | – | – | – | – | – | – | – | – |
| CC(C)[C@@H](N)C(=O)NCc1ccc(COc2cccc(F)c2)cc1 | 0.25 | 3.9 | 18 | 0.5 | 71 | inactive | 0.5 | 0.25 | < 30 | > 30 | 12 | > 110 | 30 | – | – | – | 30 | – | 0.5 |
| COC[C@@H](N)C(=O)NCc1ccc(C(F)(F)F)cc1.Cl | – | 2.5 | – | – | – | inactive | – | – | – | – | 19 | 55 | > 31 | 48 | – | – | – | – | – |
| CC(C)(C)[C@@H](N)C(=O)NCc1ccc(COc2cccc(F)c2)cc1 | 0.5 | – | 30 | 0.5 | 100 | inactive | 2 | 0.25 | 30 | > 30 | – | – | – | – | – | – | > 75 | – | – |
| C[C@@H](N)C(=O)NCc1ccc(OCc2cccc(F)c2)cc1 | – | – | – | – | – | inactive | – | – | – | – | 17 | > 120 | > 37 | – | – | – | – | – | – |
| CC(C)(C)[C@@H](N)C(=O)NCc1ccccc1 | 0.25 | 4.7 | 14 | 0.25 | 66 | inactive | 0.25 | – | 11 | > 500 | 13 | > 71 | > 22 | – | – | 4.7 | 30 | >45 | 0.25 |
